pIC50: −log10 of the molar value. Values after ≈ are worked out from the molar mass of the structure shown. Where a name gives a salt, the structure may show the parent alone. Read-outs that look alike come from different tables or passages of the source.
Tests used:
Assay type in all cases: cell-based
[1] = system: SARS-CoV-2 Delta variant (SEQ203); details: for % inhibition Vero E6 Delta MOI 0.0001 / % inhibition Vero E6 Delta MOI 0.01: at MNCC, 48 h; for % inhibition Vero E6 Delta MOI 0.0001: 1x; for % inhibition Vero E6 Delta MOI 0.01: mean 2x
[2] = system: SARS-CoV-2 A2.5 variant (M2169); details: at MNCC; […]; 48 h; mean 2x
[3] = system: SARS-CoV-2 A2.5 variant (M2169); details: for % inhibition Vero E6 A2.5 MOI 0.01: at MNCC, 48 h, 1x
[4] = system: SARS-CoV-2 Delta variant (SEQ203); details: at MNCC, 48 h, 1x
SARS-CoV-2 A2.5 variant = experiment: microbe, parasite or virus in culture; details: for IC50: read-out: IC50% in µg/mL
[5] = Severe acute respiratory syndrome coronavirus 2, Vero C1008, 72 h, read-out: IC50%
[6] = Severe acute respiratory syndrome coronavirus 2, Vero C1008, 72 h
[7] = Severe acute respiratory syndrome coronavirus 2, Vero C1008, read-out: IC90%
[8] = Severe acute respiratory syndrome coronavirus 2, Vero C1008, read-out: IC90% in µg/mL

CCN(CC)Cc1cc(Nc2ccnc3cc(Cl)ccc23)ccc1O [Amodiaquine (AQ), Amodiaquine]
antiviral inhibition at MOI = 0.00001 [1]: ≥ 20%
% inhibition Vero E6 Delta MOI 0.0001 [1]: 42%
% inhibition Vero E6 Delta MOI 0.01 [1]: 11%
% inhibition Calu-3 A2.5 MOI 0.01 [2]: showed activity
% inhibition Vero E6 A2.5 MOI 0.01 [3]: showed activity

CCO[C@H]1O[C@@H]2O[C@@]3(C)CC[C@H]4[C@H](C)CC[C@@H]([C@H]1C)[C@@]24OO3 [Arteether (AE), Arteether]
antiviral inhibition at MOI = 0.00001 [1]: ≥ 20%
% inhibition Vero E6 Delta MOI 0.0001 [1]: 23%
% inhibition Vero E6 Delta MOI 0.01 [1]: 8%
% inhibition Calu-3 A2.5 MOI 0.01 [2]: showed activity
% inhibition Vero E6 A2.5 MOI 0.01 [3]: 10%
% inhibition Calu-3 Delta MOI 0.01 [4]: 5%

C[C@H]1[C@@H](OCc2ccc(C(=O)O)cc2)O[C@@H]2O[C@@]3(C)CC[C@H]4[C@H](C)CC[C@@H]1[C@@]24OO3 [Artelinic Acid (AA), Artelinic Acid]
% inhibition Vero E6 Delta MOI 0.0001 [1]: 0%
% inhibition Vero E6 Delta MOI 0.01 [1]: 5%
% inhibition Calu-3 A2.5 MOI 0.01 [2]: 14%
% inhibition Vero E6 A2.5 MOI 0.01 [3]: 0%
% inhibition Calu-3 Delta MOI 0.01 [4]: 7%

C[C@H]1[C@H](N2CCS(=O)(=O)CC2)O[C@@H]2O[C@@]3(C)CC[C@H]4[C@H](C)CC[C@@H]1[C@@]24OO3 [Artemisone (ASO), Artemisone]
% inhibition Vero E6 Delta MOI 0.0001 [1]: 15%
% inhibition Vero E6 Delta MOI 0.01 [1]: 10%
% inhibition Vero E6 A2.5 MOI 0.01 [3]: showed activity
% inhibition Calu-3 Delta MOI 0.01 [4]: 16%

C[C@H]1[C@H](OC(=O)CCC(=O)O)O[C@@H]2O[C@@]3(C)CC[C@H]4[C@H](C)CC[C@@H]1[C@@]24OO3 [Artesunate injection (ASi), Artesunate]
pIC50 (SARS-CoV-2 A2.5 variant; [5]): 4.54
IC50 (SARS-CoV-2 A2.5 variant; [6]): 11 µg/mL
IC90 (SARS-CoV-2 A2.5 variant; [7]): 258 µM
IC90 (SARS-CoV-2 A2.5 variant; [8]): 99.3 µg/mL
antiviral inhibition at MOI = 0.00001 [1]: ≥ 20%
less potent against the Delta compared to the A2.5 variant [1]: 20%
% inhibition Vero E6 Delta MOI 0.0001 [1]: 41%
% inhibition Calu-3 A2.5 MOI 0.01 [2]: 10%
% inhibition Vero E6 A2.5 MOI 0.01 [3]: 0%

C[C@H]1[C@H](OC(=O)CCC(=O)O)O[C@@H]2O[C@@]3(C)CC[C@H]4[C@H](C)CC[C@@H]1[C@@]24OO3 [Artesunic acid (AS), Artesunic acid]
% inhibition Vero E6 Delta MOI 0.0001 [1]: 37%
% inhibition Vero E6 Delta MOI 0.01 [1]: 18%
% inhibition Vero E6 A2.5 MOI 0.01 [3]: 45%
% inhibition Calu-3 Delta MOI 0.01 [4]: 42%
% inhibition Calu-3 Delta MOI 0.01 ([4]; listed as AS): effective

CC[C@H]1OC(=O)[C@H](C)[C@@H](O[C@H]2C[C@@](C)(OC)[C@@H](O)[C@H](C)O2)[C@H](C)[C@@H](O[C@@H]2O[C@H](C)C[C@H](N(C)C)[C@H]2O)[C@](C)(O)C[C@@H](C)CN(C)[C@H](C)[C@@H](O)[C@]1(C)O [Azithromycin dehydrate (AZH), Azithromycin dehydrate]
antiviral inhibition at MOI = 0.00001 [1]: ≥ 20%
% inhibition Vero E6 Delta MOI 0.0001 [1]: 25%
% inhibition Vero E6 Delta MOI 0.01 [1]: 8%
% inhibition Calu-3 A2.5 MOI 0.01 [2]: 19%
% inhibition Vero E6 A2.5 MOI 0.01 [3]: 0%
% inhibition Calu-3 Delta MOI 0.01 [4]: 2%

CN(C)C(=O)COC(=O)Cc1ccc(OC(=O)c2ccc(NC(=N)N)cc2)cc1 [Camostat mesylate (CAM), Camostat mesylate]
% inhibition Vero E6 Delta MOI 0.0001 [1]: 0%
% inhibition Vero E6 Delta MOI 0.01 [1]: 7%
% inhibition Calu-3 A2.5 MOI 0.01 [2]: 16%
% inhibition Vero E6 A2.5 MOI 0.01 [3]: 2%
% inhibition Calu-3 Delta MOI 0.01 [4]: 4%

CCN(CCO)CCCC(C)Nc1ccnc2cc(Cl)ccc12 (centres unmarked) [Hydroxychloroquine Minsa (HCQ-m), Hydroxychloroquine]
% inhibition Vero E6 Delta MOI 0.0001 [1]: 43%
% inhibition Vero E6 Delta MOI 0.01 [1]: 18%
% inhibition Vero E6 A2.5 MOI 0.01 [3]: 0%

CCN(CCO)CCCC(C)Nc1ccnc2cc(Cl)ccc12 (centres unmarked) [Hydroxychloroquine sulfate (HCQ), Hydroxychloroquine sulfate]
pIC50 (SARS-CoV-2 A2.5 variant; [5]): 4.90
IC50 (SARS-CoV-2 A2.5 variant; [6]): 5.8 µg/mL
pIC50 (SARS-CoV-2 A2.5 variant; Severe acute respiratory syndrome coronavirus 2, Vero C1008, read-out: IC50 (Figure 4 curve)): 4.87
IC90 (SARS-CoV-2 A2.5 variant; [7]): 113 µM
IC90 (SARS-CoV-2 A2.5 variant; [8]): 38.1 µg/mL
less potent against the Delta compared to the A2.5 variant [1]: 40%
% inhibition Vero E6 Delta MOI 0.0001 [1]: 43%
% inhibition Vero E6 Delta MOI 0.01 [1]: 10%
% inhibition Calu-3 A2.5 MOI 0.01 [2]: 16%
times more potent against A2.5 than Delta ([3]; Vero-E6): 1.8 times
% inhibition Vero E6 A2.5 MOI 0.01 [3]: 29%
% inhibition Calu-3 Delta MOI 0.01 [4]: 9%
% inhibition Calu-3 Delta MOI 0.01 ([4]; listed as HCQ): effective

O=C(Nc1cccc(C2=NCCN2)c1)Nc1cccc(C2=NCCN2)c1 [Imidocarb (IMI), Imidocarb]
% inhibition Vero E6 Delta MOI 0.0001 [1]: 0%
% inhibition Vero E6 Delta MOI 0.01 [1]: 11%
% inhibition Calu-3 A2.5 MOI 0.01 [2]: 14%
% inhibition Calu-3 Delta MOI 0.01 [4]: 16%

CC[C@H](C)[C@H]1O[C@]2(CC[C@@H]1C)C[C@@H]1C[C@@H](C/C=C(\C)[C@@H](O[C@H]3C[C@H](OC)[C@@H](O[C@H]4C[C@H](OC)[C@@H](O)[C@H](C)O4)[C@H](C)O3)[C@@H](C)/C=C/C=C3\CO[C@@H]4[C@H](O)C(C)=C[C@@H](C(=O)O1)[C@]34O)O2 [Ivermectin (IVM), Ivermectin]
IC50% (SARS-CoV-2 A2.5 variant): 63.6 µg/mL (≈ 72.7 µM)
pIC50 (SARS-CoV-2 A2.5 variant; read-out: IC50%): 4.14
% inhibition Vero E6 Delta MOI 0.0001 [1]: 19%
% inhibition Vero E6 Delta MOI 0.01 [1]: 11%
% inhibition Calu-3 A2.5 MOI 0.01 [2]: 15%
% inhibition Vero E6 A2.5 MOI 0.01 [3]: 5%
% inhibition Calu-3 Delta MOI 0.01 [4]: 17%

CCCCN(CCCC)CC(O)c1cc(Cl)cc2c1-c1ccc(Cl)cc1/C2=C/c1ccc(Cl)cc1 (centres unmarked) [Lumefantrine (LUM), Lumefantrine]
% inhibition Vero E6 Delta MOI 0.0001 [1]: 0%
% inhibition Vero E6 Delta MOI 0.01 [1]: 14%
% inhibition Calu-3 A2.5 MOI 0.01 [2]: 19%

OC(c1cc(C(F)(F)F)nc2c(C(F)(F)F)cccc12)C1CCCCN1 (centres unmarked) [Mefloquine (MQ), Mefloquine]
antiviral inhibition at MOI = 0.00001 [1]: ≥ 20%
% inhibition Vero E6 Delta MOI 0.0001 [1]: 45%
% inhibition Vero E6 Delta MOI 0.01 [1]: 6%
% inhibition Calu-3 A2.5 MOI 0.01 [2]: 8%
% inhibition Vero E6 A2.5 MOI 0.01 [3]: 16%
% inhibition Calu-3 Delta MOI 0.01 [4]: 0%

CN(C)c1ccc2nc3ccc(=[N+](C)C)cc-3sc2c1 [Methylene Blue Injection (MBi), Methylene Blue]
% inhibition Vero E6 Delta MOI 0.0001 [1]: 16%
% inhibition Vero E6 Delta MOI 0.01 [1]: 10%
% inhibition Calu-3 A2.5 MOI 0.01 [2]: 18%
% inhibition Vero E6 A2.5 MOI 0.01 [3]: 2%

COc1c(C)c2c(c(O)c1C/C=C(\C)CCC(=O)O)C(=O)OC2 [Mycophenolic acid (MYC), Mycophenolic acid]
antiviral inhibition at MOI = 0.00001 [1]: ≥ 20%
% inhibition Vero E6 Delta MOI 0.0001 [1]: 40%
% inhibition Vero E6 Delta MOI 0.01 [1]: 7%
% inhibition Calu-3 A2.5 MOI 0.01 [2]: 11%
% inhibition Vero E6 A2.5 MOI 0.01 [3]: 0%
% inhibition Calu-3 Delta MOI 0.01 [4]: 5%

CN1CCN(CCCN2c3ccccc3Sc3ccc(Cl)cc32)CC1 [Prochlorperazine (PCPZ), Prochlorperazine]
% inhibition Vero E6 Delta MOI 0.0001 [1]: 6%
% inhibition Vero E6 Delta MOI 0.01 [1]: 6%
% inhibition Calu-3 A2.5 MOI 0.01 [2]: 16%
% inhibition Vero E6 A2.5 MOI 0.01 [3]: 0%
% inhibition Calu-3 Delta MOI 0.01 [4]: 0%

COc1ccc2nc3cc(Cl)ccc3c(Nc3cc(CN4CCCC4)c(O)c(CN4CCCC4)c3)c2n1 [Pyranoridine (PNO), Pyranoridine]
antiviral inhibition at MOI = 0.00001 [1]: ≥ 20%
% inhibition Vero E6 Delta MOI 0.0001 [1]: 43%
% inhibition Vero E6 Delta MOI 0.01 [1]: 6%
% inhibition Calu-3 A2.5 MOI 0.01 [2]: 1%
% inhibition Vero E6 A2.5 MOI 0.01 [3]: 0%
% inhibition Calu-3 Delta MOI 0.01 [4]: -1%

CCc1nc(N)nc(N)c1-c1ccc(Cl)cc1 [Pyrimethamina (PYR), Pyrimethamina]
antiviral inhibition at MOI = 0.00001 [1]: ≥ 20%
% inhibition Vero E6 Delta MOI 0.0001 [1]: 34%
% inhibition Vero E6 Delta MOI 0.01 [1]: 9%
% inhibition Calu-3 A2.5 MOI 0.01 [2]: 0%
% inhibition Vero E6 A2.5 MOI 0.01 [3]: 0%
% inhibition Calu-3 Delta MOI 0.01 [4]: 3%

C=C[C@H]1C[N@@]2CC[C@H]1C[C@H]2[C@H](O)c1ccnc2ccc(OC)cc12 [Quinine Sulfate (QN), Quinine Sulfate]
% inhibition Vero E6 Delta MOI 0.0001 [1]: 0%
% inhibition Vero E6 Delta MOI 0.01 [1]: 9%
% inhibition Calu-3 A2.5 MOI 0.01 [2]: 0%
% inhibition Vero E6 A2.5 MOI 0.01 [3]: 18%

NC(=O)c1ncn([C@@H]2O[C@H](CO)[C@@H](O)[C@H]2O)n1 [Ribavirin (RIB), Ribavirin]
antiviral inhibition at MOI = 0.00001 [1]: ≥ 20%
% inhibition Vero E6 Delta MOI 0.0001 [1]: 44%
% inhibition Vero E6 Delta MOI 0.01 [1]: 8%
% inhibition Calu-3 A2.5 MOI 0.01 [2]: 11%
% inhibition Vero E6 A2.5 MOI 0.01 [3]: 9%
% inhibition Calu-3 Delta MOI 0.01 [4]: -6%

COc1cc(C)c2c(Oc3cccc(C(F)(F)F)c3)c(OC)cc(NC(C)CCCN)c2n1 (centres unmarked) [TQ, tafenoquine]
viral inhibition, secondary screening, Delta [1]: at least 20%

Ferroquine [Ferroquine (FQ)]
% inhibition Vero E6 Delta MOI 0.0001 [1]: 23%
% inhibition Vero E6 Delta MOI 0.01 [1]: 7%
% inhibition Vero E6 A2.5 MOI 0.01 [3]: 12%
% inhibition Calu-3 Delta MOI 0.01 [4]: 4%

Ivermectin [Ivermectin Farmacia (IVM-f)]
antiviral inhibition at MOI = 0.00001 [1]: ≥ 20%
% inhibition Vero E6 Delta MOI 0.0001 [1]: 44%
% inhibition Vero E6 Delta MOI 0.01 [1]: 5%
% inhibition Calu-3 A2.5 MOI 0.01 [2]: 16%
% inhibition Calu-3 Delta MOI 0.01 [4]: 5%

Ivermectin [Ivermectin Liquida (IVM-li)]
% inhibition Vero E6 Delta MOI 0.0001 [1]: 0%
% inhibition Vero E6 Delta MOI 0.01 [1]: 15%
% inhibition Vero E6 A2.5 MOI 0.01 [3]: 52%
% inhibition Vero E6 A2.5 MOI 0.01 ([3]; listed as IVM-li): ≥ 20%
% inhibition Calu-3 Delta MOI 0.01 [4]: 45%
% inhibition Calu-3 Delta MOI 0.01 ([4]; listed as IVM-l): ≥ 20%
